These results are taken from US11945779B2, “Inhibitors of cancer metastasis through inhibiting migration and invasion of cancer cells” (VSpharmtech, priority 2018, dated 2024).

In series [1] the test system is colon cancer cell line DLD-1. Kind of series: Trans-well cancer cell migration inhibition, DLD-1. The class given is cell-based, human. The conditions noted are these: for IC50: Colon cancer cell DLD-1, trans-well, 16 hours, read-out: Concentration inhibiting migration of cancer cells by 50% (IC50 value). How it is done:
(§1) In order to analyze cancer cell migration inhibitory activity of CG-608, CG-609 or CG-618 prepared in Examples 1, 2, or 9, cell migration inhibitory activity was measured using a trans-well by targeting a colon cancer cell line DLD-1 (ATCC-CCL-221), pancreatic cancer cell lines AsPc-1 (ATCC-CCL-1682). CFPAC-1 (ATCC-CCL-1918). Panc-1 (ATCC-CCL-1469), and Miapaca-2 (ATCC-CCL-1420), a skin cancer cell line A375-P (ATCC-CCL-3224), lung cancer cell lines HCC-827 (ATCC-CCL-2868), A549 (ATCC-CCL-185), and NCI-H460 (ATCC-CCL-177), a prostate cancer cell line DU145 (ATCC-HTB-81), a stomach cancer cell line NuGC-3 (JCRB0822), and an ovarian cancer cell line SKOV-3 (ATCC-HTB-77).
(§2) First, the number of DLD-1 cells was measured using a hemocytometer in an RPMI medium without FBS. Thereafter, the trans-well was placed on a 24-well plate and 8×10^4 […] of cells were added. In an empty space with the trans-well on the well plate, […] of an RPM medium having 10% FBS containing CG-608, CG-609, or CG-618 was added and cultured in a CO2 incubator at 37° C. for 16 hours. After culture, […] of crystal violet (5 mg/mL of 20% […] was added to each well of the 24-well plate and the trans-well was dyed at room temperature for 30 minutes. The dyed trans-well was washed with PBS and non-migrated cells were wiped off with cotton swabs. The prepared sample was photographed with an inverted microscope mounted with a digital camera (TE 300, Nikon. Japan) and then the number of migrated cells was counted. The degree of inhibiting cell migration was calculated by Equation 1 for a group treated with the sample compared to a control group (DMSO).
(§3) In Equation 1, ‘the number of migrated cells treated with sample’ refers to the number of migrated cells measured by treating CG-608 or CG-618 of Example 1, and ‘the number of migrated cells of a control sample’ refers to the number of migrated cells measured by treating only 1% dimethyl sulfoxide (DMSO) instead of the compound.

The subject of the next series is colon cancer cells DLD-1. As to the kind of experiment: Cancer cell invasion inhibition (Matrigel trans-well), DLD-1. The class given is cell-based. The conditions noted are these: Homo sapiens, FIG. 8, read-out: Inhibition of cell invasion compared with DMSO-treated control. The method, then: In order to analyze cancer cell invasion inhibitory activity of CG-609 or CG-618 prepared in Example 1 or 9, cell invasion inhibitory activity using a trans-well was measured by targeting colon cancer cell line DLD-1 cells or pancreatic cancer cell line AsPc-1 cells.
Matrigel was diluted by 1/5 using an RPMI medium without FBS and then […] was put into each trans-well. The cells were coated in a […] for 2 hours. The number of DLD-1 cells was measured using a hemocytometer in an RPMI medium without FBS. Thereafter, the coated trans-well was placed on a 24-well plate and 8×10^4 […] of cells were added. In an empty space of the trans-well on the well plate, […] of an RPMI medium having 10% FBS containing (S)-(−)-benproperine was added and cultured in a CO2 incubator at 37° C. for 16 hours. After culture, […] of crystal violet (5 mg/mL of 20% MeOH) was added to each well of the 24-well plate and the trans-well was dyed at room temperature for 30 minutes. The dyed trans-well was washed with PBS and non-migrated cells were wiped off with cotton swabs. The prepared sample was photographed with an inverted microscope mounted with a digital camera (TE 300, Nikon, Japan), and then the number of migrated cells was counted. The degree of inhibiting cell migration was calculated for a group treated with the sample compared to a control group (DMSO).

The test system of series [2] is prostate cancer cell line DU145. Kind of series: Trans-well cancer cell migration inhibition, DU145. The class given is cell-based. The note with it: for IC50: Homo sapiens, DU-145, Prostate cancer cell DU145, read-out: Concentration inhibiting migration of cancer cells by 50% (IC50 value). How it is done: as §1, §2, §3
The subject of series [3] is normal cells MCF10A. Kind of series: Cytotoxicity analysis (WST-1), normal cells MCF10A. It counts as cell-based. The conditions noted are these: for Cytotoxicity in normal cells: 1 μM, 5 μM, 10 μM, 48 hours, WST-1, FIG. 2; for Growth of normal cells: FIG. 2. The method, then:
(§4) In order to verify cytotoxicity of CG-608 to CG-610 and CG-613 to CG-618 prepared in Examples 1 to 9, human colon cancer cell line DLD-1 cells (ATCC-CCL-221), pancreatic cancer cell line AsPc-1 cells (ATCC-CRL-1682), and normal cells MCF10A (ATCC-CRL-10317) were cultured in an RPMI medium containing 10% bovine fetal serum (FBS) while maintaining 37° C. and 5% CO2, and then the cells were detached using a 0.05% trypsin-EDTA. 4×10^3 cells calculated by a hematocytometer were inoculated in each well of a 96-well plate containing a 10% FBS containing medium and cultured in a 37° C. incubator containing 5% C2.
(§5) After 24 hours, the medium of each well was exchanged to a new medium containing a control group (0.1% DMSO) and CG-609 prepared in Example 1 or CG-618 prepared in Example 9 as a representative benproperine derivative at concentrations of 1 μM, 5 μM, and 10 μM. Thereafter, the cells were cultured in an incubator at 37° C. and 5% CO2 for 48 hours. Thereafter, […] of WST-1 (Roche) was added to each well and cultured for 2 hours, and then the absorbance was measured at 450 nm using an ELISA reader (Bio-Rad).

Series [4] has as its system normal cells MCF10A. Kind of series: Cell migration of normal cells MCF10A. It counts as cell-based. The conditions noted are these: FIG. 2.
In series [5] the test system is skin cancer cell line A375-P. Kind of series: Trans-well cancer cell migration inhibition, A375-P. The class given is cell-based. The note with it: Homo sapiens, A375P; for IC50: Skin cancer cell A375-P, read-out: Concentration inhibiting migration of cancer cells by 50% (IC50 value). The method, then: as §1, §2, §3
Series [6] relates to lung cancer cell line HCC-827. Kind of series: Trans-well cancer cell migration inhibition, HCC-827. The conditions noted are these: Homo sapiens, HCC827; for IC50: Lung cancer cell HCC-827, read-out: Concentration inhibiting migration of cancer cells by 50% (IC50 value). The class given is cell-based. How it is done: as §1, §2, §3
The nature of series [7]: Acute toxicity test for oral administration to rats. The note with it: rat, in vivo, 1000 mg/kg; SD rats, single oral dose; read-out: Minimum dose (LD50) of oral administration. How it is done:
Six-week-old specific pathogen free (SPF) SD-based rats were divided by two per group and then CG-608, CG-609, or CG-618 prepared in Example 1, 2, or 9 was dissolved in distilled water for injection and orally administered to rats once in a dose of 1000 mg/kg.

Series [8] relates to pancreatic cancer cell line AsPc-1. As to the kind of experiment: Cytotoxicity / proliferation analysis (WST-1), AsPc-1. The class given is cell-based, human. The note with it: AsPc-1, FIG. 8. How it is done:
as §4, §5

For series [9], the system named is stomach cancer cell line NuGC-3. Kind of series: Trans-well cancer cell migration inhibition, NuGC-3. The class given is cell-based. The note with it: for IC50: Homo sapiens, Gastric cancer cell NuGC-3, read-out: Concentration inhibiting migration of cancer cells by 50% (IC50 value). The method, then: as §1, §2, §3

Where only a bound is given, the exact number is not on record here.

In general, inhibition refers to the relative decrease from the control value, in per cent. Take `C[C@H](COc1ccccc1Cc1ccccc1)N1CCCC[C@@H]1C` [CG-609, (S)-1-((R)-1-(2-benzylphenoxy)propan-2-yl)-2-methylpiperidine]: the “Cancer cell migration inhibitory activity relative to the benproperine derivative compound known in the related art” value in series [1] (DLD-1) is “more than 20 times”. In addition, the IC50 was 60 nM in series [1] (Homo sapiens); 2000 nM in [2]; 700 nM in [5]; 210 nM in series [6]; 5 µM in series [9]. The same compound showed an inhibition at 0.05 µM in series [1] (Homo sapiens, DLD-1, 50 nM, FIG. 4A) of at least 50%. Also, the inhibition at 1 µM in series [1] (Homo sapiens, DLD-1, 1 μM, FIG. 3) was at least 50%; in series [5] (A375-P, 1 μM, FIG. 3), at least 50%; in series [6] (HCC-827, 1 μM, FIG. 3) it was at least 50%. Moreover, the inhibition at 0.1 µM in the series on colon cancer cells DLD-1 (DLD-1, 100 nM) was at least 50%. In addition, the “Inhibition of cell migration” value is given as at least 50% in [2] (DU-145, concentration not given, FIG. 3) and at least 50% in series [9] (NuGC-3, concentration not given, FIG. 3). Further, the “Cytotoxicity in normal cells” value in the series on normal cells MCF10A [3] is on record as “did not exhibit cytotoxicity”. Besides, the “Growth of normal cells” value in the series with normal cells MCF10A [3] was “did not inhibit”. Moreover, in the series with normal cells MCF10A [4], the “Cell migration of normal cells” value is reported as “did not inhibit”. Further, the LD50 in series [7] was at least 1000 mg/kg. Moreover, in series [8], the “Growth of cancer cells” value was “did not affect the growth”.

As to `CC1CCCCN1C(C)COc1ccccc1Cc1ccccc1` (racemic) [CG-618, 1-(1-(2-benzylphenoxy)propan-2-yl)-2-methylpiperidine], the IC50 in [1] (Homo sapiens) was found to be 550 nM; in [2] it was 3000 nM; in series [5], 3000 nM; in [6], 500 nM; in series [9], 8 µM. For the same compound, the inhibition at 0.5 µM in the series on colon cancer cells DLD-1 (DLD-1, 500 nM) was at least 50%. Further, the “Cytotoxicity in normal cells” value in the series with normal cells MCF10A [3] is “did not exhibit cytotoxicity”. Moreover, in the series with normal cells MCF10A [3], the “Growth of normal cells” value is reported as “did not inhibit”. Besides, in the series with normal cells MCF10A [4], the “Cell migration of normal cells” value is listed as “did not inhibit”. Further, the LD50 in series [7] was at least 1000 mg/kg. The “Growth of cancer cells” value in [8] was “did not affect the growth”.
